Assay results as given in article PMC10398685 (ACS Omega, 2023).
“Also recorded” adds a separate entry of the source.

Legend:
[1] = target: SARS-CoV-2 nsp14 7-N MTase (Severe acute respiratory syndrome coronavirus 2, UniProt P0DTD1); test: biochemical; details: Echo MS assay, 20 nM nsp14, 4 μM SAM, 4 μM GpppA, duplicates
[2] = system: VERO-E6 cells; test: Steady-state intracellular uptake in VERO-E6 cells; assay type: in vitro ADME; details: VERO-E6, 60 min incubation, 50 μM at t = 0
Excerpt: (§1) While an enzymatic MTase assay represents a valuable fast screening platform providing the information that can be directly used for SAR analyses, it is not fully predictive for the compounds’ activity in whole cells. In order to verify the ability of the compounds to reach the intracellular compartment, we measured the steady-state accumulation of representative compounds in intact CCRF-CEM, VERO-E6, and Calu-3 cells (Tables 3 and S2). […] Compound 12q was almost completely cleared from the medium after 60 min incubation with the cells rendering it among the most permeable compounds of the series based on Kp values. It should be noted that the apparent intracellular concentration of the compounds may be biased by their potential metabolism. Therefore, we decided to subject the selected derivatives to in vitro stability studies. […]
(§2) 3.3. Intracellular Uptake
(§3) Steady-state cellular uptake was measured in CCRF-CEM cells (ATCC, CRL-119), VERO-E6 cells (ATCC, CRL-1586) and Calu-3 cells (HTB-55), respectively. […]
(§4) The medium was stored at −20 °C […]
(§5) for later analysis of the extracellular concentration of the compounds. The cells were washed two times with 1 mL PBS (900 x g, 5 min, +4 °C), and also stored at −20 °C for subsequent analysis of the intracellular concentration of the compounds. At the day of the analysis, both media and the pelleted cells were quickly thawed. The cell pellets were extracted with 200 μL of ice-cold methanol by vigorous shaking, further diluted 1:1 with water and centrifuged at 20 000 x g for 10 min. As for the media samples, 10 μL aliquots were extracted with 990 μL of 50% methanol. The samples were then transferred to ECHO® -compatible 384-well plates and the amount of analytes were quantified by the ECHO -MS® System (Sciex) where acoustic droplet ejection module is coupled with Sciex 6500® triple quadrupole mass spectrometer operating with an electrospray ionization source. Spectrometer was run in the multiple reaction monitoring (MRM) mode. When necessary, the processed samples were further diluted in 50% methanol to fit in the calibration range. Calibration curves of the compounds in 50% methanol were measured alongside the samples within the same run. The ra tio between the total compound concentration in the cells and compound concentration in the medium (K p) at t=60 min was calculated according to: Kp = (Acell / Vcell) / Cmedium, where Acell is the amount of compound in the cell lysate, Vcell is the CCRF-CEM cell volume (3.38 μL/10^7 cells)16 and Cmedium is the compound concentration in the medium sample after correcting for sample dilution. Experiments were performed in duplicates.
(§6) For adherent cells (Vero E6 and Calu-3), the workflow was modified as follows: Cells were seeded on 6-well plates at a concentration of […] and 8.2 x 10^5 cells/well for Vero E6 and Calu-3, respectively, in 3 mL of serum-free culture media. The cells were left to attach overnight, the medium was then aspirated and replenished with 2 mL of fresh media containing the compounds (50 µM final conc). After 60 min at 37 °C the media was aspirated and the cells were washed twice with 1 mL of PBS. Then, 1 mL of fresh PBS was added and the cells were subjected to three freeze-thaw cycles and further diluted with 1:1 with MeOH. The cell lysates and the media were further processed as described above. Intracellular volume of Vero E6 and Calu-3 cells (8.6 and 14 μL/107 cells, respectively) was calculated from their diameter determined by cell counter (Luna FL) while in suspension (following the trypsinization) assuming the homogenous spheres.

[3] = Plasma stability, mouse; assay type: in vitro ADME; details: 5uM, triplicates
[4] = Microsomal stability, mouse; assay type: in vitro ADME; details: triplicates; for Microsomal stability Rem. at 45 min / Microsomal stability T1/2: 0.5 mg/ml mouse microsomes, 5uM; for microsomal CLint at 5 µM / half-life at 5 µM: pH 7.4, 0.5 mg/ml mouse microsomes; for half-life at 5 µM: read-out: Microsomal stability T1/2
[5] = system: SARS-CoV-2; test: microbe, parasite or virus in culture; assay type: cell-based; details: Severe acute respiratory syndrome coronavirus 2, Vero C1008, 72 h; VeroE6 cells, MOI~0.03, 3 days incubation, CPE by XTT; read-out: EC50 (anti-SARS-CoV-2 activity)
[6] = in vitro; details: human
[7] = in vitro; details: African green monkey
[8] = Steady-state intracellular uptake in VERO-E6 cells; assay type: in vitro ADME; details: African green monkey, VERO-E6 cells; VERO-E6, 60 min incubation, 50 μM at t = 0; read-out: Kp (intracellular accumulation ratio IC/EC)
Excerpt: as §1, §2, §3, §4, §5, §6

Structure (SMILES) | IC50 [1] [µM] | EC (extracellular concentration in the media at t = 60 min) ± sd [2] [µM] | IC (intracellular concentration in the cells at t = 60 min) ± sd [2] | Plasma stability Rem. at 120 min [3] [%] | Plasma stability T1/2 [3] | Microsomal stability Rem. at 45 min [4] [%] | Microsomal stability T1/2 [4] | EC50 [5] [µM] | CC50 at 3 days [6] [µM] | CC50 at 3 days [7] [µM] | Kp at 1 h, 50 µM [8] | microsomal CLint at 5 µM [4] [µL/min/mg] | half-life at 5 µM [4] [min]
COc1ccc(S(=O)(=O)N(C)C[C@H]2O[C@@H](n3cc(C#Cc4cnc5ccccc5c4)c4c(N)ncnc43)[C@H](O)[C@@H]2O)cc1C#N [Compound 12q] | 0.019 ± 0.0025 | 0.1 ± 0.1 | 18,533 ± 7709 μM | 113.2 ± 3.7 | Stable | 101.0 ± 3.4 | Stable; also recorded: excellent stability | > 100 | > 100 | > 100 |  |  | 
COc1ccc(S(=O)(=O)N(C)C[C@H]2O[C@@H](n3cc(C#Cc4cccnc4)c4c(N)ncnc43)[C@H](O)[C@@H]2O)cc1C#N [Compound 12s] | 0.021 ± 0.003 | 2.6 ± 2.3 | 13,578 ± 3626 μM | 102.7 ± 3.4 | Stable | 50.2 ± 3.2 |  | > 100 | > 100 | > 100 | 5210 | 30.5 ± 4.7 | 50.8 ± 5.1
CCN(C[C@H]1O[C@@H](n2cc(C#Cc3cnc4ccccc4c3)c3c(N)ncnc32)[C@H](O)[C@@H]1O)S(=O)(=O)c1ccc(OC)c(C#N)c1 [Compound 12e] | 0.028 ± 0.005 | 16.5 ± 3.6 |  | 120.8 ± 10.5 | Stable | 79.3 ± 3.8 | Stable | > 100 | > 100 | > 100 | 608 |  | 
CCN(C[C@H]1O[C@@H](n2cc(C#Cc3ccc(N)nc3)c3c(N)ncnc32)[C@H](O)[C@@H]1O)S(=O)(=O)c1ccc(OC)c(C#N)c1 [Compound 12h] | 0.046 ± 0.0058 | 19.5 ± 2.0 |  | 108.2 ± 4.2 | Stable | 43.0 ± 0.8 |  | > 100 | > 100 | > 100 | 885 | 37.8 ± 1.8 | 37.3 ± 1.8
CCN(C[C@H]1O[C@@H](n2cc(C#Cc3cccnc3)c3c(N)ncnc32)[C@H](O)[C@@H]1O)S(=O)(=O)c1ccc(OC)c(C#N)c1 [Compound 12l] | 0.038 ± 0.0059 | 17.1 ± 2.9 |  | 109.9 ± 1.0 | Stable | 37.4 ± 0.5 |  | > 100 | > 100 | > 100 | 225 | 40.9 ± 0.8 | 33.7 ± 0.7
CCN(C[C@H]1O[C@@H](n2cc(C#Cc3nc4ccccc4[nH]3)c3c(N)ncnc32)[C@H](O)[C@@H]1O)S(=O)(=O)c1ccc(OC)c(C#N)c1 [Compound 12a] | 0.037 ± 0.0065 | 42 ± 3.2 |  | 119.2 ± 6.0 | Stable | 48.7 ± 3.2 |  | > 100 | > 100 | > 100 | 822 | 32.6 ± 2.1 | 44.1 ± 2.7
COc1ccc(S(=O)(=O)N(C)C[C@H]2O[C@@H](n3cc(C#Cc4ccc(C(N)=O)cc4)c4c(N)ncnc43)[C@H](O)[C@@H]2O)cc1C#N [Compound 12r] | 0.023 ± 0.0037 | 1.1 ± 0.5 | 19,777 ± 7485 μM | 113.5 ± 6.0 | Stable | 80.9 ± 12.0 | Stable; also recorded: excellent stability | > 100 | > 100 | > 100 |  |  | 
CCN(C[C@H]1O[C@@H](n2cc(C#Cc3ccc(C(N)=O)cc3)c3c(N)ncnc32)[C@H](O)[C@@H]1O)S(=O)(=O)c1ccc(OC)c(C#N)c1 [Compound 12o] | 0.049 ± 0.0062 | 20.9 ± 0.8 |  | 115.4 ± 3.7 | Stable | 65.9 ± 3.2 |  | > 100 | > 100 | > 100 | 247 | 19.2 ± 1.7 | 74.9 ± 7.5
